Molecules are shown by their SMILES. Read-outs that look alike come from different tables or passages of the source.

A short description of data set [1]: Metabolic profiling of plasma after in vivo administration, rat.
Data set [2] deals with IL-1β-stimulated IL-6 production in human skin fibroblast CCD-39SK cells. The data set is described as follows: GR-mediated transrepression: IL-1β-stimulated IL-6 production in CCD-39SK cells. Format: cell-based. Conditions: mean of 22 determinations, read-out: EC50, inhibition of IL-6 expression. As for the experimental part:
Glucocorticoid Receptor-Mediated Transrepression Assays: 1. IL-1β-Stimulated IL-6 Production in Human Skin Fibroblast CCD-39SK Cells:
Briefly, human skin fibroblast CCD-39SK cells (20,000 cells/well), obtained from the American Type Culture Collection (ATCC), Manassas, Va. U.S.A. (ATCC Catalog #CRL-1501) are seeded in 96-well plates in SF-GM (MEM) medium (ATCC Catalog #30-20030), supplemented with 10% fetal bovine serum (FBS), 100 U/mL penicillin, 100 μg/mL streptomycin and 2 mmol/L L-glutamine. Cells are maintained in a humidified chamber with 5% CO2 at 37° C. Test compounds are added to the wells in various concentrations ranging from a final concentration of about 4.65 pM to 4.64 μM. 0.1 μM of dexamethasone is used as a positive control. 1-hour post treatment with test compound, IL-1β is added at final concentration of 1 ng/mL and the reaction mixture is incubated overnight. IL-6 concentrations are measured with an ELISA Kit (R&D Systems, Inc., Minneapolis, Minn., U.S.A.) using standard techniques. Briefly, take 10 μL of supernatant from each well and add 90 μL of assay buffer. IL-6 concentrations are quantified by reading absorbance at 450 nm. A standard curve of absorbance versus IL-6 concentration is constructed and used to determine the concentration of IL-6 in experimental samples.

Data set [3] concerns human hepatocyte cultures. The data set is described as follows: Metabolism in human hepatocyte cultures in vitro. Format: in vitro ADME.
Data set [4] is described as follows: Metabolic profiling of plasma after in vivo administration, monkey.
The subject of data set [5] is LPS-stimulated TNF-α production in PMA-differentiated U937 cells. The experiment in a line: GR-mediated transrepression: LPS-stimulated TNF-α production in PMA-differentiated U937 cells. Format: cell-based. Conditions: Homo sapiens, U-937, mean of 6 determinations, read-out: EC50, inhibition of TNF-α expression. As for the experimental part:
2. LPS-Stimulated TNF-α Production in PMA-Differentiated U937 Cells:
Human U937 pre-monocytic cells (ATCC Catalog #CRL-1593.2) are grown in complete RPMI 1640 medium (ATCC Catalog #30-2001) containing 10% fetal bovine serum (FBS). To allow monocytes to differentiate to adherent macrophages, U937 cells are washed in PBS (Calcium, magnesium-free) and resuspended in fresh RPMI medium containing 20 nM phorbol 12-myristate-13-acetate (PMA) overnight. After differentiation, test compounds are added to the cells in the 96-well plate at various concentrations ranging from about […] to 4.64 μM. 1-hour post treatment with test compound, LPS is added at final concentration of 100 ng/mL and the reaction mixture is incubated overnight.
TNF-α production is measured with an ELISA kit (R&D Systems, Inc., Minneapolis, Minn., U.S.A.) using standard techniques. Briefly, 25 μL cell-free supernatant is transferred to another 96-well plate and 75 μL of assay buffer is added. TNF-α is quantified by reading absorbance at 450 nm. A standard curve of absorbance versus TNF-α concentration is constructed and used to determine the concentration of TNF-α in experimental samples.

The subject of data set [6] is carrageenan-induced paw edema. The experiment in a line: Carrageenan-induced paw edema (CPE) model. In kind it is in vivo, rat. Conditions: rat; for ED50: oral gavage 2 h before carrageenan, 3 h after injection, mean of 5. The source says: Carrageenans are a group of polysaccharides which can induce an acute inflammatory response in animals. Cardinal signs of inflammation including edema, hyperalgesia and erythema are developed in the injection site immediately following injection. The CPE model (Winter et al., Proc. Soc. Exp. Biol. Med. 111, 544-547, 1962) is a recognized model of inflammation and can be used to evaluate the antinflammatory effects of glucocorticoid receptor ligands.
To evaluate the anti-inflammatory effects of Compound (I), the Compound (I) is formulated in a vehicle comprising 0.5% carboxymethyl cellulose and 0.25% Tween 80 then administered orally via gavage to male Sprague-Dawley rats (180-200 g) (Harlan Industries, Indianapolis, Ind.). For comparison, prednisolone is administered orally in the same vehicle. Two hours later, 1% carrageenan in 50 μL of 0.9% pyrogen free saline is injected into the subplantar regions of the right hind paw. Rats are euthanized by CO2 at 3 hours after the carrageenan injection. Paws are removed then weighed using a microbalance. Paws are then immediately immersed into liquid nitrogen until frozen. Frozen paws are dissected by making several cuts on the paw surface then centrifuged to extract the exudates. Exudate levels of IL-1β, a cytokine generated during the inflammatory response, is then measured by ELISA (R&D Systems, Inc., Catalog No. RLB00) using standard techniques. Total paw protein is also measured using a protein assay kit (Pierce Biotechnology, Inc., Rockford, Ill., U.S.A., Catalog No. 1856210) and the absolute level of IL-1β is normalized to yield a concentration value of ng IL-1β/mg total protein.
On the technique in general: In the carrageenan paw model, swelling and tenderness develop within hours.

As to `CC/C(=C1\c2ccc(Cl)cc2OCc2ncccc21)c1cccc(NS(C)(=O)=O)c1` [Compound (I), (E)-N-{3-[1-(8-Chloro-11H-10-oxa-1-aza-dibenzo[a,d]cyclohepten-5-ylidene)-propyl]-phenyl}-methanesulfonamide], the “circulating entity in plasma” value in data set [1] and in data set [4] (after in vivo administration) was “major circulating entity” throughout. The EC50 in data set [2] was roughly 0.0048 µM; in data set [5], roughly 0.03 µM. Moreover, in data set [3], the “metabolism when incubated with human hepatocyte cultures” value is reported as “only minor metabolism”. The metabolites in plasma entry in data set [4] is reported as “no metabolites detected”. Besides, the “inhibition of carrageenan induced paw edema” value in data set [6] (oral administration, in words) is on record as “dose dependently inhibits”. In addition, in data set [6] (oral administration, in words), the “production of interleukin-1-beta (IL-1β)” value is “inhibits production”. Moreover, the ED50 in data set [6] (read-out: ED50, inhibition of carrageenan induced paw weight gain) was roughly 1.2 mg/kg; in data set [6] (read-out: ED50, reduction of paw exudate levels of IL-1β), roughly 0.31 mg/kg.

A word on the EC50: it is the concentration at which the effect is half-maximal. The ED50 is the midpoint of the dose-response relation.

These data come from patent US8101760B2, “Glucocorticoid receptor modulator and methods of use” (Eli Lilly and Company, priority 2007, dated 2012).
